Reference: patent US12492163B2, “9H-fluorene derivatives or their pharmaceutically acceptable salts” (priority 2020, dated 2025)

Legend:
Type in all cases: biochemical
[1] = target: human recombinant beta-secretase (hBACE1) (Homo sapiens (Human), UniProt P56817); assay: FRET assay, inhibition of human recombinant beta-secretase; settings: for IC50: read-out: hBACE-1 IC50; for inhibition at 50 µM: 50 μM inhibitor concentration, read-out: hBACE-1 % inh
Experimental: The FRET assay [Vassar, et al.] was used to test activity using 384-well black plates and a microplate reader (EnSpire Multimode; PerkinElmer; Waltham, MA, USA). The test was purchased from Life Technologies Polska Sp. z o.o. (Warsaw, Poland). […] Stock solutions of test compounds were prepared in DMSO and then further diluted with assay buffer (50 mM sodium acetate; pH 4.5) to the appropriate concentrations in the wells. In the first step of the test, 10 μl of the substrate (Rh-[…] quencher, based on the so-called Swedish APP mutation) was mixed with 10 μl of the test compound (or assay buffer; for blank sample). The enzyme reaction was initiated by adding 10 μl of enzyme (hBACE1, 1 U/ml). The reaction mixture was incubated at 25° C. for 60 minutes, then 10 μL of Stop solution (2.5 M sodium acetate) was added. After stopping the reaction, fluorescence was measured at 576 nm. The percentage of enzyme inhibition was calculated from the formula [1−(S60−S0)/(C60−C0)]×100, where S0 and S60 are the fluorescence of the test sample (containing the enzyme, substrate and test compound) at the start of the reaction and after 60 minutes, respectively, whereas C0 and C60 were analogous fluorescence intensities in the blank samples (containing enzyme, substrate and buffer). All test compounds were tested at a concentration of 50 μM in triplicate. […] A BACE1 IV inhibitor (Calbiochem, Merck; Nottingham, UK) [Stachel et al.] was used as a reference compound. […] IC50 values for all test compounds were calculated using non-linear regression (GraphPad Prism 5 [GraphPad Software, San Diego, CA, USA 5.00]) for the percentage of enzyme inhibition against the inhibitor concentration used.

[2] = target: human plasma butyrylcholinesterase (hBuChE) (Homo sapiens (Human), UniProt P06276); assay: Ellman's test, inhibition of human plasma butyrylcholinesterase; settings: for inhibition at 1 µM: 1 μM inhibitor concentration, read-out: hBuChE % inh
Experimental: (§1) The spectrophotometric Ellman's test [Ellman et al.] modified for assays in 96-well plates was used to test the activity. Reagents: 5,5′-dithiobis-(2-nitrobenzoic acid) (DTNB), eqBuChE and butyrylthiocholine iodide (BTC) were purchased from Sigma-Aldrich (Steinheim, Germany). hBuChE was from Vivonics (Bedford, MA, USA). The enzymes were prepared by dissolving in demineralized water to a concentration of 0.384 U/ml. Stock solutions of test compounds were prepared by dissolving in DMSO to a concentration of 0.0034 M. They were then diluted with water to obtain the appropriate concentrations in the wells. In the first step of the test, 25 μl of test compound (or DMSO/water mixture at the appropriate ratio for blank samples) was incubated in 0.1 M phosphate buffer (200 μl, pH=8.0) with DTNB (20 μl; 0.0025M) and with the appropriate enzyme (20 μl; eqBuChE or hBuChE) at 25° C. (animal enzyme) or 36° C. (human enzyme). After a 5 minutes incubation period, 20 μl of BTC solution (0.00375 M) was added. After another 5 minutes, the changes in absorbance of the solutions were measured at 412 nm using a multifunctional microplate reader (EnSpire Multimode; PerkinElmer; Waltham, MA, USA). All compounds were tested at a screening concentration of 10 μM (eqBuChE) or 1 μM (hBuChE). The percentage of enzyme inhibition was calculated from the equation 100-(S/B)×100, where S and B were the enzymatic activity in the test sample well and in the well without sample, respectively. […] All reactions were performed in triplicate. IC50 values were calculated using non-linear regression (GraphPad Prism 5 [GraphPad Software, San Diego, CA, USA 5.00]) for the percentage of enzyme inhibition against the inhibitor concentration used. Tacrine and donepezil were used as reference compounds.

[3] = target: Recombinant human Aβ1-42 peptide (Homo sapiens (Human), UniProt P05067); assay: Thioflavin T test, antiaggregation activity against beta-amyloid; settings: 10 μM test compound, 1.5 μM Aβ1-42; read-out: inh. Aβ aggr. % inh
Experimental: The thioflavin T test [Levine III] was used for the determinations. Recombinant human Aβ1-42 peptide (HFIP pretreated, Merck Millipore, Darmstadt, Germany) was dissolved in DMSO to form a 75 μM stock solution. The solution was further diluted in HEPES buffer (150 mM HEPES, pH 7.4, 150 mM NaCl) to a concentration of 7.5 μM. Then, the Aβ1-42 solution was added to the test compounds (black 96-well plates were used) and diluted with thioflavin T solution (10 μM final concentration). The final mixture contained 1.5 μM Aβ1-42, 10 μM test compound, and 3% of DMSO. Fluorescence was measured every 300 s (excitation wavelength was 440 nm, emission wavelength was 490 nm) with continuous mixing between measurements. A multifunction microplate reader (Synergy H4; BioTek Instruments, Inc., Winooski, VT, USA) was used to measure the fluorescence. Fluorescence started increasing after approximately 4 hours, plateaued after 20 hours and remained virtually unchanged for the next 28 hours of incubation. The plateau-phase fluorescence intensities (in the presence and absence of test compounds) were averaged and the mean fluorescence values for the respective wells at t=0 h were subtracted from them. […] IC50 values were calculated using non-linear regression (GraphPad Prism 5 [GraphPad Software, San Diego, CA, USA 5.00]) for the percentage of aggregation inhibition against the inhibitor concentration used.

[4] = target: horse plasma butyrylcholinesterase (eqBuChE) (Equus caballus (Horse), UniProt P81908); assay: Ellman's test, inhibition of horse plasma butyrylcholinesterase
Experimental: as §1

Sequence of human plasma butyrylcholinesterase (hBuChE) (P06276 29-602): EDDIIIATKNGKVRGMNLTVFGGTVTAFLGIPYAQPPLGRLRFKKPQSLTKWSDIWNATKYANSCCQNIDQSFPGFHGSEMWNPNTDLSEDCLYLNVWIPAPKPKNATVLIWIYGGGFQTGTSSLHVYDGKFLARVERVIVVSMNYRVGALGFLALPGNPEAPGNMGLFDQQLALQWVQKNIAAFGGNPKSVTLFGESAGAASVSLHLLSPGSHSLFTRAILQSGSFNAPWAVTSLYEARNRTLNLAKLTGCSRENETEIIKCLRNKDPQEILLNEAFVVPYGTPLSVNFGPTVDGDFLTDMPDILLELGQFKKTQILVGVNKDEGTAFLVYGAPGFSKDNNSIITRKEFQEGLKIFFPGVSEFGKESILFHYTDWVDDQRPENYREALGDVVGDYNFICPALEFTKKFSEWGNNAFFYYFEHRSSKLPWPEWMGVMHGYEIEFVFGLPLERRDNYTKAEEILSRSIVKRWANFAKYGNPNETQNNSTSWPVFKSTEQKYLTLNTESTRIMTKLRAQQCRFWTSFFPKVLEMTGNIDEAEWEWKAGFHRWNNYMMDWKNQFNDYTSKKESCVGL
Sequence of Recombinant human Aβ1-42 peptide (P05067 672-713): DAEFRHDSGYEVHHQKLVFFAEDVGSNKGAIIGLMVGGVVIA
Sequence of horse plasma butyrylcholinesterase (eqBuChE) (P81908 whole entry): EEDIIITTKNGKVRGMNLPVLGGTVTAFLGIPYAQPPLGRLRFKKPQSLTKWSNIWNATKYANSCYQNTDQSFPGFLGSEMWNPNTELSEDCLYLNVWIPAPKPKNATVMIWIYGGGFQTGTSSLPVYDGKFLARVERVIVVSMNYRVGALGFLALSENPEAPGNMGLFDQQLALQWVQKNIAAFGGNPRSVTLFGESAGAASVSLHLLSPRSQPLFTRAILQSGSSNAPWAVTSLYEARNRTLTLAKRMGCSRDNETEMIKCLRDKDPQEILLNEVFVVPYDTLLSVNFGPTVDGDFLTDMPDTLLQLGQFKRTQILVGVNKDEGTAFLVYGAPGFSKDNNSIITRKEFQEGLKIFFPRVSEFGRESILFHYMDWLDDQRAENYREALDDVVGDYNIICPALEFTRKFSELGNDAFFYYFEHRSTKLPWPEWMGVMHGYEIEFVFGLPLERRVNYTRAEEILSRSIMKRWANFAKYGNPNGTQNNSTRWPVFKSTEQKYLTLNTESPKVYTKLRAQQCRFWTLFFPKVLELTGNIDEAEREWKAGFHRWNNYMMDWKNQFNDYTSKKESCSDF
Sequence of human recombinant beta-secretase (hBACE1) (P56817 46-501): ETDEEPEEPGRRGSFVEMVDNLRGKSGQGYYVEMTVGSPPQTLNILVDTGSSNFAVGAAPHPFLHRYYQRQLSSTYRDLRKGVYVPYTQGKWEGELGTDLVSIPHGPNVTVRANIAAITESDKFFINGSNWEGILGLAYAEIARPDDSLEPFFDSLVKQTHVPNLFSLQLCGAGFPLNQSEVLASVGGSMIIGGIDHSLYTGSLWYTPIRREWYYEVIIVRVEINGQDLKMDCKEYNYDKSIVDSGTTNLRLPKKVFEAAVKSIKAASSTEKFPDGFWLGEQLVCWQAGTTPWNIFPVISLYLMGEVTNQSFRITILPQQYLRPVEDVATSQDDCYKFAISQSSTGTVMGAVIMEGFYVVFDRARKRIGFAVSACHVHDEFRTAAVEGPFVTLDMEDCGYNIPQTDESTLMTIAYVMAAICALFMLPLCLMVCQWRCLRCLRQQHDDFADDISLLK

| SMILES | IC50 [1] [nM] | IC50 [2] [nM] | inhibition at 10 µM [3] [%] | IC50 [4] [nM] | inhibition at 1 µM [2] [%] | inhibition at 50 µM [1] [%] |
| --- | --- | --- | --- | --- | --- | --- |
| O[C@@H](CNCc1ccccc1)[C@H](Cc1ccccc1)NC1c2ccccc2-c2ccccc21 [Compound 2, (2S,3S)-3-((9H-fluoren-9-yl)amino)-1-(benzylamino)-4-phenylbutan-2-ol] | 4820 | 571 | 86.3 | 333 | – | – |
| CC(C)c1cccc(CNC[C@@H](O)[C@H](Cc2ccccc2)NC2c3ccccc3-c3ccccc32)c1 [Compound 4, (2R,3S)-3-((9H-fluoren-9-yl)amino)-1-((3-isopropylbenzyl)amino)-4-phenylbutan-2-ol] | 3920 | 489 | 83.7 | 514 | – | – |
| CC(C)(C)c1ccc(CNC[C@H](O)[C@H](Cc2ccccc2)NC2c3ccccc3-c3ccccc32)cc1 [Compound 5, (2S,3S)-3-((9H-fluoren-9-yl)amino)-1-((4-(tert-butyl)benzyl)amino)-4-phenylbutan-2-ol] | 6640 | – | 75.6 | 803 | 62 | – |
| O[C@H](CNCc1cccc(C(F)(F)F)c1)[C@H](Cc1ccccc1)NC1c2ccccc2-c2ccccc21 [Compound 8, (2R,3S)-3-((9H-fluoren-9-yl)amino)-4-phenyl-1-((3-(trifluoromethyl)benzyl)amino)-butan-2-ol] | 3190 | 721 | 72.4 | 751 | – | – |
| C[C@H](NC[C@@H](O)[C@H](Cc1ccccc1)NC1c2ccccc2-c2ccccc21)c1ccccc1 [Compound 9, (2R,3S)-3-((9H-fluoren-9-yl)amino)-4-phenyl-1-(((S)-1-phenylethyl)amino)butan-2-ol] | 20100 | 812 | 63 | 264 | – | – |
| CC(C)(NC[C@@H](O)[C@H](Cc1ccccc1)NC1c2ccccc2-c2ccccc21)c1ccccc1 [Compound 10, (2R,3S)-3-((9H-fluoren-9-yl)amino)-4-phenyl-1-((2-phenylpropan-2-yl)amino)butan-2-ol] | 17200 | 1170 | 90.8 | 345 | – | – |
| CC(C)(C)NC[C@H](O)[C@H](Cc1ccccc1)NC1c2ccccc2-c2ccccc21 [Compound 12, (2S,3S)-3-((9H-fluoren-9-yl)amino)-1-(tert-butylamino)-4-phenylbutan-2-ol] | – | – | 67.2 | 4840 | 58.8 | 48.7 |
| CC(C)(C)CNC[C@@H](O)[C@H](Cc1ccccc1)NC1c2ccccc2-c2ccccc21 [Compound 13, (2R,3S)-3-((9H-fluoren-9-yl)amino)-1-(neopentylamino)-4-phenylbutan-2-ol] | 8590 | – | 80.2 | 1180 | 61.3 | – |
| O[C@H](CNCC(F)(F)F)[C@H](Cc1ccccc1)NC1c2ccccc2-c2ccccc21 [Compound 14, (2R,3S)-3-((9H-fluoren-9-yl)amino)-4-phenyl-1-((2,2,2-trifluoroethyl)amino)butan-2-ol] | – | – | 82.5 | 1080 | 67.9 | 36.8 |
| O[C@@H](CNCC1CC1)[C@H](Cc1ccccc1)NC1c2ccccc2-c2ccccc21 [Compound 15, (2S,3S)-3-((9H-fluoren-9-yl)amino)-1-((cyclopropylmethyl)amino)-4-phenylbutan-2-ol] | – | 1030 | – | 975 | – | – |
| CC(C)(C)c1ccc(CNC[C@H](O)[C@H](Cc2ccccc2)NC(=O)C2c3ccccc3-c3ccccc32)cc1 [Compound 18, N-((2S,3S)-4-((4-(tert-butyl)benzyl)amino)-3-hydroxy-1-phenylbutan-2-yl)-9H-fluorene-9-carboxamide] | 1120 | – | 63.5 | 1220 | 55.6 | – |
| O=C(CC1c2ccccc2-c2ccccc21)N[C@@H](Cc1ccccc1)[C@H](O)CNCc1cccc(C(F)(F)F)c1 [Compound 21, 2-(9H-fluoren-9-yl)-N-((2S,3R)-3-hydroxy-1-phenyl-4-((3-(trifluoromethyl)benzyl)-amino)butan-2-yl)acetamide] | 2120 | – | < 10 | 2020 | 54.3 | – |
| CC(C)(NC[C@@H](O)[C@H](Cc1ccccc1)NC(=O)C1c2ccccc2-c2ccccc21)c1ccccc1 [Compound 24, N-((2S,3R)-3-hydroxy-1-phenyl-4-((2-phenylpropan-2-yl)amino)butan-2-yl)-9H-fluorene-9-carboxamide] | 5150 | – | 61 | 2840 | 21.4 | – |
| CC(C)(NC[C@@H](O)[C@H](Cc1ccccc1)NC(=O)CC1c2ccccc2-c2ccccc21)c1ccccc1 [Compound 25, 2-(9H-fluoren-9-yl)-N-((2S,3R)-3-hydroxy-1-phenyl-4-((2-phenylpropan-2-yl)amino)-butan-2-yl)acetamide] | 4960 | – | 63 | 1270 | 71.7 | – |
| CC(C)(C)CNC[C@@H](O)[C@H](Cc1ccccc1)NC(=O)C1c2ccccc2-c2ccccc21 [Compound 26, N-((2S,3R)-3-hydroxy-4-(neopentylamino)-1-phenylbutan-2-yl)-9H-fluorene-9-carboxamide] | – | – | 39.5 | 1090 | 61.1 | 54.5 |
